Changes are numbered by the printed parent chain.
How the values were obtained:
Settings in all cases: at 1 µM
[1] = test system: T1, Receptor-type tyrosine-protein kinase FLT3 (Homo sapiens), P36888 [R834Q]; assay: (§1) Selectivity interaction (KinomeScan (DiscoverX)) EUB0001619a FLT3
T1 sequence (whole entry): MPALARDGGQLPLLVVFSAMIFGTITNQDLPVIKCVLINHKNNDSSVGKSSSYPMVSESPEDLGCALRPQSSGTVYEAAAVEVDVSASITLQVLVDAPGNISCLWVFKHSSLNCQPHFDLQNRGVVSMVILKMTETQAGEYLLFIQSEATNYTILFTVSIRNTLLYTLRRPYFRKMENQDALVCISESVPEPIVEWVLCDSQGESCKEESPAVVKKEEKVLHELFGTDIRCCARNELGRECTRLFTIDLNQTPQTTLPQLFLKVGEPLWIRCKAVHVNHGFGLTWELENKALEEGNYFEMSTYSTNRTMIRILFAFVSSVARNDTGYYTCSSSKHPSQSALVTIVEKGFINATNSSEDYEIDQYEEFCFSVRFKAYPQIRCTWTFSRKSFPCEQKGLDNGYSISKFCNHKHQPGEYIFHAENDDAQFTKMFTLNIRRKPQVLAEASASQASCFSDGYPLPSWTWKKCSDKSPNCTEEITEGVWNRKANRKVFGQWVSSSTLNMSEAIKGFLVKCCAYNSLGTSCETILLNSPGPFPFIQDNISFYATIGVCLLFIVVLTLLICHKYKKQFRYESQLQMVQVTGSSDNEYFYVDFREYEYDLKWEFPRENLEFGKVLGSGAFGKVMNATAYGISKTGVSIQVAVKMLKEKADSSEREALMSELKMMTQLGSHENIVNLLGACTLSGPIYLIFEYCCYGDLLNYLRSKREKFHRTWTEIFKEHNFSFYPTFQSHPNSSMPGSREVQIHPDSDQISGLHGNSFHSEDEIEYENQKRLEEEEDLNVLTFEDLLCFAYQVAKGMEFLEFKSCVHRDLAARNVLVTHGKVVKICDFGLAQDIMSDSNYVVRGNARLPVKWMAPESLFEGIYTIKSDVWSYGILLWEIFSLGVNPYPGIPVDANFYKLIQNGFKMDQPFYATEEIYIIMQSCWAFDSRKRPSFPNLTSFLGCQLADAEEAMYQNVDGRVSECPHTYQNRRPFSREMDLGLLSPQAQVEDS

[2] = test system: T2, Receptor-type tyrosine-protein kinase FLT3 (Homo sapiens), P36888 [K663Q]; assay: as §1
T2 sequence (whole entry): T1 sequence (whole entry) with K663Q, Q834R

[3] = test system: T3, Receptor-type tyrosine-protein kinase FLT3 (Homo sapiens), P36888 [D835H]; assay: as §1
T3 sequence (whole entry): T1 sequence (whole entry) with Q834R, D835H

## N#Cc1cccc(-c2c[nH]c3ncnc(N4CCOCC4)c23)c1
[1]
  % of control: 93%
[2]
  % of control: 71%
[3]
  % of control: 72%

— ChEMBL document CHEMBL5465560, “Selectivity Literature for EUbOPEN Chemogenomic Library” (2024)
